Test results published in ChEMBL document CHEMBL6074686 (Eur J Med Chem, 2025).
Calls of active or inactive are those of the source. The rule behind the calls is not given here.

What was measured:
[1] = tested on: MCF7; assay: Inhibition of colony formation in human MCF7 cells at 3.125 to 50 nM by crystal violet staining based assay; assay type: functional, cell-based; conditions: dose 3.125-50 nM, time 0-72 hrs
[2] = tested on: SK-OV-3; assay: Induction of cell cycle arrest in human SK-OV-3 cells assessed as decrease in Cyclin-B1 expression at 100 nM incubated for 24 hrs by Western blotting analysis; assay type: functional, cell-based
[3] = target: Tubulin (Homo sapiens) (UniProt P68371+Q9H4B7+P0DPH7+P68366+Q13509+Q71U36+P04350+Q3ZCM7+P07437+P68363+Q9BQE3+Q6PEY2+Q13885+Q9BVA1+Q9BUF5); assay: Inhibition of tubulin polymerization in human SK-OV-3 cells assessed as destruction of microtubule network at 20 nM incubated for 18 hrs by Alexa Fluor 488 staining based confocal immunofluorescent microscopic analysis; assay type: cell-based
[4] = tested on: SK-OV-3; assay: Inhibition of cell migration in human SK-OV-3 cells assessed as wound closure ratio at 25 nM incubated for 24 hrs by wound healing assay (reference value: 100%); assay type: functional; parameters: scale not given: the % may be the effect or the level left
[5] = tested on: MCF7; assay: Inhibition of cell migration in human MCF7 cells assessed as wound closure at 2.5 nM incubated for 24 hrs by wound healing assay (reference value: 44.5 +/- 8.8%); assay type: functional; parameters: scale not given: the % may be the effect or the level left
[6] = tested on: MCF7; assay: Inhibition of cell migration in human MCF7 cells assessed as wound closure ratio at 10 nM incubated for 24 hrs by wound healing assay (reference value: 100%); assay type: functional; parameters: scale not given: the % may be the effect or the level left
[7] = tested on: SK-OV-3; assay: Inhibition of cell migration in human SK-OV-3 cells assessed as area of migrated cells at 1.25 nM incubated for 24 hrs by crystal violet staining based inverted microscopic analysis (reference value: 30.1 +/- 1.3 mm^3); assay type: functional
[8] = tested on: SK-OV-3; assay: Inhibition of cell migration in human SK-OV-3 cells assessed as area of migrated cells at 10 nM incubated for 24 hrs by crystal violet staining based inverted microscopic analysis (reference value: 30.1 +/- 1.3 mm^3); assay type: functional
[9] = tested on: MCF7; assay: Inhibition of cell migration in human MCF7 cells assessed as area of migrated cells at 6.25 nM incubated for 24 hrs by crystal violet staining based inverted microscopic analysis (reference value: 18.5 +/- 0.3 mm^3); assay type: functional

Question: With CNc1nc(N2CCCc3cc(OC)ccc32)c2cc(F)ccc2n1 as the compound, how does the inhibition [1] read?
Answer: The inhibition was “Time-dependent-effect”.

Question: What about the Activity [2] of the same compound?
Answer: The Activity was “Active”.

Question: What about the inhibition [3] of the same compound?
Answer: The inhibition was “Active”.

Question: What about the Activity [4] of the same compound?
Answer: Its Activity is 51.4%.

Question: What about the Activity [5] of the same compound?
Answer: The Activity was 44%.

Question: What about the Activity [6] of the same compound?
Answer: Its Activity is 104.4%.

Question: What about the Activity [7] of the same compound?
Answer: The Activity was 21.7 mm3.

Question: And the Activity [8]?
Answer: Its Activity is 6.8 mm3.

Question: And the Activity [9]?
Answer: Its Activity is 16.4 mm3.
